Consider one compound from publication PMC3691639, “Aldose reductase from Schistosoma japonicum: crystallization and structure-based inhibitor screening for discovering antischistosomal lead compounds” (Parasites & Vectors, 2013).

For the assay, the target named is T1, recombinant Schistosoma japonicum aldose reductase (rSjAR; SjAR) (Schistosoma japonicum, UniProt Q5DD64).
T1 construct: gene Akr1b4; SjAR-pET28a plasmid, expressed in E. coli BL21(DE3)
T1 sequence (Q5DD64 1-310): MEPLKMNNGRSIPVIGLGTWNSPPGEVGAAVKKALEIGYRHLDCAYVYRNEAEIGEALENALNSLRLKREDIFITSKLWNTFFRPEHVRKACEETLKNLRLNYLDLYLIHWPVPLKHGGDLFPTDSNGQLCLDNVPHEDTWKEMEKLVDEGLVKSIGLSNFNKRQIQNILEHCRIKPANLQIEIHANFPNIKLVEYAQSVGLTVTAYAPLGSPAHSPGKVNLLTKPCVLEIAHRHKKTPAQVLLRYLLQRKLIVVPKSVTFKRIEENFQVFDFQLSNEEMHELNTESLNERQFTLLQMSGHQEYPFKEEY
The experiment in a line: NADPH depletion at […] nm, microplate. Type of assay: biochemical.

Regarding `O=C1c2ccccc2C(=C2c3ccccc3C(=O)c3ccccc32)c2ccccc21` [AR9], the IC50 was 30.6 µM.

The term IC50 denotes the concentration at which inhibition is half-maximal.
